# Test results taken from US7795227B2, “Compounds and methods for treating seizure disorders” (Wisconsin Alumni Research Foundation, priority 2004, dated 2010).
# “And” between values parts separate entries of the source, which are not always exact repeats. Equal values may be shown once. “Also recorded” adds a separate entry of the source.
# What was measured:
# [1] = test system: rat hippocampal slices (CA3 synchronized burst discharges); experiment: Synchronized bursting induced by elevated [K+]o in hippocampal slices, CA3 extracellular recording; format: cell-based
# Procedure: In these experiments, postnatal day 14 to 35 male Sprague-Dawley rats were anesthetized and decapitated. Brains were removed and transferred to ice cold artificial cerebrospinal fluid (ACSF), comprising 124 mM NaCl, 5 mM KCl, 1.25 mM NaH2PO4, 1.5 mM MgSO4, and 26 mM NaHCO3, supplemented with 10 mM glucose), which was continuously bubbled with 95% O2 and 5% CO2. Transverse hippocampal slices (˜400 microns) were prepared on a Leica VT1000s vibratome (Wetzlar Germany). The slices were allowed to recover for 1 hour at room temperature and were then transferred to an interface recording chamber at 34° C. in ACSF with 7.5 mM [K^+]o. Extracellular recordings were made from the CA3 region with an Axioclamp 2B (Axon Instruments, Forest City, Calif.) using a glass microelectrode filled with 150 mM NaCl. Data were recorded and analyzed using PClamp8 (Axon Instruments).
# Synchronized bursting was induced by incubating hippocampal slices in ACSF supplemented with to a final concentration of 7.5 mM [K^+]o, Baseline recordings were obtained after exposure to elevated [K^+]o for 1 hour and the burst frequency had stabilized.
# The reduction in burst frequency is shown in graphical form in FIG. 7.
# The effects of glucose deprivation on synchronized burst discharges were examined in rat hippocampal slices ex corpora using the methods described in Example 2. Spontaneous synchronized bursts were recorded in CA3 in ACSF containing 10 mM glucose supplemented with 7.5 mM [K^+]o for ˜1 hr, and then in glucose-free ACSF supplemented with 10 mM lactate or 10 mM pyruvate. […] The interburst interval increased to 24 seconds when the slice was exposed to glucose-free ACSF supplemented with 10 mM lactate, indicating an anticonvulsant effect of glucose deprivation.
# [2] = test system: kindled seizures evoked by perforant path stimulation; experiment: Kindling model of temporal lobe epilepsy, perforant path stimulation; format: in vivo, rat
# From the text: In the kindling model, repeated activation of neural pathways in vivo induces progressive electrographic and behavioral seizures, permanent increases in susceptibility to additional seizures, and eventually spontaneous seizures (Goddard et al., 1969, Experimental Neurology 25: 295-330; Pinel, 1978, Experimental Neurology 58: 190-202; Wada et al., 1975, Canadian Journal of Neurological Sciences 2: 477-492; Sayin et al. 2003, Journal of Neuroscience 23: 2759-2768). Kindling has become the most extensively studied experimental model of epilepsy (McNamara, 1999, Nature 399: A15-22). In a typical kindling protocol, periodic stimulation delivered once or twice daily gradually evokes an increasing synchronous electrical afterdischarge (AD) or electrographic seizure accompanied by a behavioral seizure. […] Kindling can be induced by electrical or chemical activation of a variety of neural pathways in a range of species that include amphibians, mammals, and primates (Morrell and Tsuru, 1976, Electroencephalography and Clinical Neurophysiology 40: 1-11); Wada and Mizoguchi, 1984; Epilepsia 25: 278-287). Because kindling induces permanent alterations in the brain and can be evoked in a range of species by a variety of stimuli, it has been regarded as a phenomenon of long-term brain plasticity as well as a model of temporal lobe epilepsy. The behavioral features of brief repeated kindled seizures evoked by limbic stimulation resemble human partial complex seizures with secondary generalization. In the early stages of limbic kindling in rodents, each stimulation evokes an AD accompanied by a brief partial seizure, which progresses to stimulus-evoked secondary generalized seizures. This feature is an example of the progressive functional alterations induced by kindling that are epileptogenic.
# Adult male Sprague-Dawley rats (weighing between 250-350 g, obtained from Harlan, Madison, Wis.) were anesthetized with ketamine (80 mg/kg intramuscularly) and xylazine (10 mg/kg intramuscularly), and were stereotactically implanted with an insulated stainless steel bipolar electrode for stimulation and recording. The electrode was implanted in the perforant path (8.1 mm posterior, 4.4 mm lateral, 3.5 mm ventral with respect to bregma), and was fixed to the skull with acrylic. After a two-week recovery period following electrode placement, unrestrained, awake, implanted rats received twice-daily kindling stimulation (5 days per week) with a one-second train of 62-Hertz (Hz) biphasic constant current 1.0-millisecond (ms) square wave pulses to induce kindled seizures. The electroencephalogram was recorded from the bipolar electrode, which was switched to the stimulator for the delivery of kindling stimulation. On the first day of stimulation, each rat received a stimulus train of 500 microAmperes (μA). If an AD was evoked, this intensity was used in subsequent stimulations. If no AD was evoked, the stimulation intensity was increased in a sequence of 500, 700, 900, 1000, 1100, 1200, 1300 and 1400 μA until an AD was evoked. The intensity that initially evoked AD was used for subsequent stimulations. […] If AD was evoked by 3 consecutive stimulations at a given intensity, the stimulation intensity was then decreased by 100 μA decrements. At stimulation intensities below 500 μA, the intensity was decreased in 30 μA decrements. These stimulation procedures deliver stimulation at the lowest intensity required to evoke an AD (Sutula and Steward, 1986, Journal of Neurophysiology 56: 732-746; Cavazos et al., 1991, Journal of Neuroscience 11: 2795-2803).
# The anticonvulsant and antiepileptic effects of 2-DG were confirmed in rats that experienced kindled seizures evoked by perforant path stimulation according to the protocol noted above. […]
# [3] = test system: neuropathic pain (mechanical allodynia); experiment: Loose sciatic nerve ligation model of neuropathic pain, Von Frye filament test; format: in vivo, rat
# Procedure: The effects of 2-deoxy-D-glucose (2-DG), which has acute anticonvulsant properties in hippocampal slices and prevents the consequences of repeated evoked network synchronization in the kindling model of epilepsy, were evaluated for treatment of neuropathic pain. The effects of 2-DG were examined in the loose sciatic nerve ligation rat model of neuropathic pain. […] Effects of 2-DG on neuropathic pain were assessed by measurement of hindlimb withdrawal latency to mechanical stimulation and development of mechanical allodynia according to standardized methods.
# Male Sprague-Dawley rats (Harlan, 250-350 g) were behaviorally tested by measuring hindlimb withdrawal latency in response to mechanical stimulation of the hindlimb with standardized Von Frye filaments of increasing diameter, in order to verify that all animals initially had normal responses prior to surgical procedures and treatments. In the Von Frye method, animals are placed on a wire mesh floor, and the hindlimb is stroked with standardized filaments of increasing diameter until withdrawal is observed. The size of the filament evoking withdrawal is the Von Frye score. Withdrawal to smaller filaments indicates hyperalgesia, or mechanical allodynia when normally innocuous filaments produce withdrawal, and are regarded as measures of pain. Baseline withdrawal scores were used to assess effects of sciatic ligation and treatment with 2-DG.
# After obtaining baseline measurements, animals were then anesthetized with a combination of ketamine 70 mg/kg IP and xylazine […]. The sciatic nerve was exposed at mid-thigh level by blunt dissection through the biceps femoris muscles. […] The incision was closed in layers, and during the immediate post-operative period the animals were monitored for signs of behavior that would signify unexpected and undesirable reaction to the surgical procedure (loss of weight or appetite, lack of grooming or loss of locomotion).
# Hindlimb withdrawal responses were assessed postoperatively to verify that mechanical allodynia and hyperalgesia were induced as a result of the surgical ligation. […]
structure (smiles),measurement,setting,value
CC(O)C(=O)O (stereo not drawn) [lactate],Interburst interval,"[1]; glucose-free ACSF with 10 mM substitute energy source, 7.5 mM [K+]o, baseline in 10 mM glucose ~3.8 seconds",24 s
"O=C(O)CI [iodoacetate, reference compound]",Synchronized bursting in presence of iodoacetate,"[1]; 200 uM iodoacetate, ACSF with 10 mM glucose or 10 mM lactate, FIGS. 6 and 7",reduced synchronized bursting
same,Reduction in epileptic bursts with lactate as alternative energy source,"[1]; iodoacetate, lactate provided, FIG. 7",persists
"O=CC[C@@H](O)[C@H](O)[C@H](O)CO [2-DG, 2-deoxy-D-glucose]",Duration of anticonvulsant effects after stopping 2-DG,"[2]; 250 mg/kg twice daily for 3 months, twice daily stimulation continued",approximately 8 weeks
same,Effective dose in rats,[2]; intraperitoneal or subcutaneous administration,250 mg/kg
same,Time AD threshold remained elevated after stopping twice daily 2-DG,"[2]; kindled rat, 250 mg/kg IP",≤ 6 weeks
same,Effect on AD threshold compared to saline controls,"[2]; rats n=15 vs saline n=12, p<0.001 ANOVA, FIG. 2A",increased the AD threshold
same,ADs to Class 4,"[2]; rats, 2-DG 250 mg/kg IP 30 minutes before stimulation",20.9 +/− 4.0 ADs
same,ADs to Class 5 (first Class V generalized tonic clonic seizure),"[2]; rats, 2-DG 250 mg/kg IP 30 minutes before stimulation, n=11, p<0.03 vs saline",27.7±6.0 ADs and 27.7 +/− 6.0 ADs
same,ADs to Class 3,"[2]; rats, 2-DG 250 mg/kg IP 30 minutes before stimulation, number of afterdischarges to reach seizure class",16.7 +/− 3.1 ADs
same,AD threshold during repeated 2-DG administration,"[2]; single kindled rat, 250 mg/kg IP, from 200 μA, about 2-3 weeks of twice daily stimulation",~1500 μA
same,AD threshold after restarting 2-DG,"[2]; single kindled rat, FIG. 3, 250 mg/kg IP, rose from ~200 μAmps during 2-3 weeks",1500 μAmps
same,Progressive reduction in AD threshold with repeated ADs,"[2]; single rat, FIG. 3, 250 mg/kg IP prior to each stimulation, after the third evoked AD",appeared to prevent the progressive reduction in AD threshold
same,Day of administration after which pain-reducing effects diminished or were extinguished,[3]; 250 mg/kg IP,4 to 5 days and 4 days
same,Motor or behavioral impairments,[3]; 250 mg/kg IP,did not result in any apparent motor or behavioral impairments
same,Mechanical allodynia (Von Frye score) compared to saline,"[3]; 250 mg/kg IP 30 minutes prior to testing, n=10, p=0.044 day 1, p<0.001 day 2",acutely reduced mechanical allodynia
same,Burst frequency (epileptic bursts) after bath application,"[1]; 1 mM 2-DG, 7.5 mM [K+]o, FIG. 4B/4C",reduction in epileptic bursts; also recorded: decreased progressively
same,Persistence of anticonvulsant effect after return to ACSF without 2-DG,"[1]; ACSF with 7.5 mM [K+]o, FIG. 5B",≤ 60 min
